Common to all, as to format: functional, cell-based
For test [1], the system named is 4T1. Put plainly: Cytotoxicity against mouse 4T1 cells assessed as cell viability by MTT assay. A general note: Tetrazolium assays rely on reduction of a dye to a coloured formazan, in cell work by metabolically active cells.
In test [2] the test system is HeLa. Nature of the test: Cytotoxicity against human HeLa cells assessed as cell viability by MTT assay.
The subject of test [3] is MCF7. Nature of the test: Cytotoxicity against human MCF7 cells assessed as cell viability by MTT assay.
Test [4] has as its system A549. Put plainly: Cytotoxicity against human A549 cells assessed as cell viability by MTT assay.
In test [5] the test system is MDA-MB-231. Put plainly: Cytotoxicity against human MDA-MB-231 cells assessed as cell viability by MTT assay.

Broadly, the IC50 is the midpoint of a concentration-inhibition curve.

Where a name gives a salt, the structure may show the parent alone.

As to `COc1cccc2c1C(=O)c1c(O)c3c(c(O)c1C2=O)C[C@@](O)(C(=O)CO)C[C@@H]3O[C@H]1C[C@H](N)[C@H](O)[C@H](C)O1` [DOXORUBICIN HYDROCHLORIDE], the IC50 in test [1] amounted to 2400 nM.
As for `O=C1C[C@@H](c2ccccc2)Oc2cc(O)c([C@@H](/C=C/C[C@@H](O)CCc3ccccc3)c3ccccc3)c(O)c21`, the IC50 stood at 670 nM in test [2], 4160 nM in test [3], 3270 nM in test [4] and 1480 nM in test [5].

Source of the values: ChEMBL document CHEMBL5505987 (Eur J Med Chem, 2024).
